According to BindingDB's records for doi:10.1016/j.bmcl.2004.10.084 (University of Illinois At Chicago, 2005):
pKi: −log10 of the molar value.

Biological target: Beta-secretase 1 (Homo sapiens, UniProt P56817)
Experiment: Enzyme Inhibition Measurements
Conditions: pH 4.5; 37 °C
Procedure: Enzyme activities were assayed by monitoring the hydrolysis of substrate in the presence or absence of inhibitor compounds. The hydrolysis was recorded as the increase in fluorescence intensity over a 10 min time period. […] The Ki was calculated by using Ki = IC50/ (1 + [S]/Km), and a Km value determined according to Michaelis-Menten.

Beta-secretase 1, sequence (P56817 whole entry): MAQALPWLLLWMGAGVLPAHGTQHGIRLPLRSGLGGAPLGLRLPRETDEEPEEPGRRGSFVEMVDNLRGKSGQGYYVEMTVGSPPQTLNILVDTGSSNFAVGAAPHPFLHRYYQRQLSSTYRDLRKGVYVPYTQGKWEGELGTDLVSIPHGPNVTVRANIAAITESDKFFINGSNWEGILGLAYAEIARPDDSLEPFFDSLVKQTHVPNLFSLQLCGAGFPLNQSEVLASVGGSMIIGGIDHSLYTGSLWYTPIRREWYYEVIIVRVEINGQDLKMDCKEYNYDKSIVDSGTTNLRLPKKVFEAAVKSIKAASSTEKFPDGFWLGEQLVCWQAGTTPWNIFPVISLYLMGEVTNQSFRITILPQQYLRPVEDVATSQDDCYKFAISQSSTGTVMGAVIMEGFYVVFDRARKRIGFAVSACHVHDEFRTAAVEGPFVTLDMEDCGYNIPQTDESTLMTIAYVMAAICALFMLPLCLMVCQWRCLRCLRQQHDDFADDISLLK

C=CCNC(=O)C[C@H](NC(=O)[C@@H](NC(=O)OCC=C)C(C)C)C(=O)N[C@@H](CC(C)C)[C@@H](O)C[C@@H](C)C(=O)N[C@H](C(=O)NCc1ccccc1)C(C)C [prop-2-en-1-yl N-[(1S)-1-{[(1S)-1-{[(1R,3S,4S)-1-{[(1S)-1-(benzylcarbamoyl)-2-methylpropyl]carbamoyl}-3-hydroxy-1,6-dimethylheptan-4-yl]carbamoyl}-2-(prop-2-en-1-ylcarbamoyl)ethyl]carbamoyl}-2-methylpropyl]carbamate]
pKi: 7.58
